Measured values reported in paper PMC9977279, “Cryo-EM structures of mitochondrial respiratory complex I from Drosophila melanogaster” (eLife, 2023).

Tests used:
Experiment in all cases: cryo-EM structure ([…] A)
[1] = target: T1, Drosophila complex I (NADH-binding site at the FMN cofactor) (Drosophila melanogaster, UniProt Q9VMI3); conditions: co-purified; Dm1 active state
T1 construct: gene ND-51; native 43-subunit complex I, ~1 MDa monomer, purified from mitochondrial membranes of whole adult flies in DDM; no tag; with NADH dehydrogenase [ubiquinone] iron-sulfur protein 2; NADH dehydrogenase [ubiquinone] iron-sulfur protein 7; NADH-ubiquinone oxidoreductase chain 1

[2] = target: T2, subunit NDUFA10 of Drosophila complex I (Drosophila melanogaster, UniProt P91929); type: binding; conditions: modelled in Dm1 map; identity taken from earlier work
T2 construct: gene ND-42; subunit within native 43-subunit complex I purified from mitochondrial membranes of whole adult flies; no tag
T2 sequence (P91929 61-407): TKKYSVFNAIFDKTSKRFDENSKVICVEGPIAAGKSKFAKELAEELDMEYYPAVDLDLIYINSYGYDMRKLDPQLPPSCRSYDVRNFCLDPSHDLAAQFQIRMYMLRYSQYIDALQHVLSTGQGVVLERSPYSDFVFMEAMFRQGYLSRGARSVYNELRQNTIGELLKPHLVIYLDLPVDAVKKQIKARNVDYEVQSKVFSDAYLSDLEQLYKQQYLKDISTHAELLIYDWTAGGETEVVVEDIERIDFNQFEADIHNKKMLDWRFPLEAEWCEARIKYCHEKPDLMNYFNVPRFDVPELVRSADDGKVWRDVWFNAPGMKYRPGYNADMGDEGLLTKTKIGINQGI

[3] = test system: T3, Drosophila complex I (ubiquinone-binding site; subunits NDUFS2, NDUFS7, ND1, ND3, ND6); set-up: species or system Drosophila melanogaster; conditions: co-purified; Dm1 active state; partially inserted in ubiquinone channel; ubiquinone-9 or -10 referred to as Q9
T3 construct: gene ND-49; native 43-subunit complex I (14 core, 29 supernumerary), ~1 MDa monomer, purified from mitochondrial membranes of whole adult flies in DDM; no tag; NDUFA2 and NDUFC1 absent; with NADH dehydrogenase [ubiquinone] flavoprotein 1
T3 sequence (Q9V4E0 39-468): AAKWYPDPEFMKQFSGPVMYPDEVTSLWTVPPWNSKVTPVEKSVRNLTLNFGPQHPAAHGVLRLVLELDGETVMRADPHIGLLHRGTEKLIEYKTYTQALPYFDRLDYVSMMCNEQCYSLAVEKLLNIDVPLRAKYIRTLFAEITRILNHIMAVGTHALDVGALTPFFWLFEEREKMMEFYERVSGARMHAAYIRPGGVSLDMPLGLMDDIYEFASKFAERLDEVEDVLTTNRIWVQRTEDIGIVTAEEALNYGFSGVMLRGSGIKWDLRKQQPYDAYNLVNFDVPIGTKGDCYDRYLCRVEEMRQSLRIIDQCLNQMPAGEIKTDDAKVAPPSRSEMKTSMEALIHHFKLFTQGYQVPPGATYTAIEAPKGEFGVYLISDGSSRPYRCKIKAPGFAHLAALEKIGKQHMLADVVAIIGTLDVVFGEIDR
T3 sequence (Q9VXK7 40-221, further chain): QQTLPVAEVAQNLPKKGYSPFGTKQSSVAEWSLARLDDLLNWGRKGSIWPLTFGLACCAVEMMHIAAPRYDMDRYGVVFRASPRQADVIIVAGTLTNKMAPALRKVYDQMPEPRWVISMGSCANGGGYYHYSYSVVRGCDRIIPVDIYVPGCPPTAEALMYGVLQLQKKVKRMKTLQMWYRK
T3 sequence (C7DZL9 1-315, further chain): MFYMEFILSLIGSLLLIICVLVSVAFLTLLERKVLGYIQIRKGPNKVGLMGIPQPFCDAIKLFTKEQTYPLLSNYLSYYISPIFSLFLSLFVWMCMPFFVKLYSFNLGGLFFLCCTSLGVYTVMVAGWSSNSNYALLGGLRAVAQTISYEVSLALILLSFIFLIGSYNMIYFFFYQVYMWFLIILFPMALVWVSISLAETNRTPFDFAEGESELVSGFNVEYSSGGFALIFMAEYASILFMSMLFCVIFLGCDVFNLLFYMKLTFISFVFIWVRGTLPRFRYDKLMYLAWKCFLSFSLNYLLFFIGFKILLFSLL
T3 sequence (P18930 whole entry, further chain): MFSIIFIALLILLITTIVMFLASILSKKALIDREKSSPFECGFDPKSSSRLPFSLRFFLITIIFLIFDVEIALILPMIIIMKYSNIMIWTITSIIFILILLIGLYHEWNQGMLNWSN
T3 sequence (P18933 1-173, further chain): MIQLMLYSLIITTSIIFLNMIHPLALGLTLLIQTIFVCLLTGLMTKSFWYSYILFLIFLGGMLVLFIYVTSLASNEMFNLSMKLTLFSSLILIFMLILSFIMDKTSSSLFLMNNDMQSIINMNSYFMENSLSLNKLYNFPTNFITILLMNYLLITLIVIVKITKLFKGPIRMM

T1 sequence (Q9VMI3 34-474, one chain of several): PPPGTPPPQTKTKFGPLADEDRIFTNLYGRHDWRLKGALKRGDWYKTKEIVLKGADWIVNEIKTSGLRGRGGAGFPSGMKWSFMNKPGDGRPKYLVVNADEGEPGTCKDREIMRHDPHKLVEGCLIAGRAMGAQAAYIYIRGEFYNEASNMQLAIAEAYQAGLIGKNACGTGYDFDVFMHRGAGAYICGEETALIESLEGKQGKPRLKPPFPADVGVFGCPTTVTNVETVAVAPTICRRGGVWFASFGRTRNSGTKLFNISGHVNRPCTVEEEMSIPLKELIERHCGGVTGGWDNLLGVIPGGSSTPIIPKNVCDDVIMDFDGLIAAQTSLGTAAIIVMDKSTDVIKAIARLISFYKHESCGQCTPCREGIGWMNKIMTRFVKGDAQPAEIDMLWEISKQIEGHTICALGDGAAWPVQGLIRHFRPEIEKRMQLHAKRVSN

Cc1cc2nc3c(=O)[nH]c(=O)nc-3n(C[C@H](O)[C@H](O)[C@H](O)COP(=O)(O)O)c2cc1C [FMN]
cryo-EM structure (3.28 A) [1]: The NADH-binding site at the flavin mononucleotide (FMN) cofactor

Nc1nc2c(ncn2[C@H]2C[C@H](O)[C@@H](COP(=O)(O)OP(=O)(O)OP(=O)(O)O)O2)c(=O)[nH]1 [dGTP]
cryo-EM structure (3.28 A) [2]: dGTP was modelled in subunit NDUFA10

COC1=C(OC)C(=O)C(C/C=C(\C)CC/C=C(\C)CC/C=C(\C)CC/C=C(\C)CC/C=C(\C)CC/C=C(\C)CC/C=C(\C)CC/C=C(\C)CCC=C(C)C)=C(C)C1=O [Q9]
cryo-EM structure (3.28 A) [3]: density for Q9 is observed within the site, although the Q9 is only partially inserted
